Measured values taken from patent US12600734B2, “Photosensitizing dye” (The University of Tokyo, priority 2020, dated 2026).

Legend:
[1] = Singlet oxygen quantum yield (DPBF, light irradiation); type: physicochemical
Protocol: (§1) The absorption maximum of all of the substances was measured in DMSO.
The singlet oxygen quantum yield of PS1 was measured. […] This value was higher than the values of conventional photosensitizers, and thus, the usefulness of PS1 for photo dynamic therapy could be expected.

[2] = tested on: EGFR-overexpressing A431 cells; test: Immunotoxin plus photochemical internalization (PCI), cell viability (CCK-8); type: cell-based; conditions: A431, immunotoxin + PCI with the named photosensitizer + NIR
Protocol: After that, a new medium was added, and irradiation (6.1 mW/cm^2 for 60 min, 22 J/cm^2) with a near infrared light (700 to 1100 nm) was then carried out. Forty-eight hours after the irradiation, CCK-8 was added to the resultant, and the absorption at a wavelength of 450 nm was then measured using a plate reader, so that cell viability was measured (FIG. 8).
Using these photosensitizers, a cell experiment involving the combined use of addition of the immunotoxin and PCI was carried out.

[3] = Absorption spectrum of PS1 and common photosensitizers in DMSO; type: physicochemical
Protocol: as §1
The absorption spectrum of the synthesized PS1 was measured. […] In addition, absorption spectra were measured at different concentrations, and the absorption at a wavelength of 775 nm was then plotted to obtain a molar adsorption coefficient. As a result, the molar adsorption coefficient was 41000 (M^−1 cm^−1) (FIG. 2).

[4] = protoporphyrin IX generated as a result of metabolizing 5-ALA in the cytoplasm; cited from earlier work

Row | Structure (SMILES) | singlet oxygen quantum yield ([1]; in DMSO) | photosensitization ability under near infrared light irradiation (reason given for no viability reduction) [2] | absorption maximum (region) [3] | singlet oxygen quantum yield ([1]; in a buffer aqueous solution (pH 7.4)) | absorption maximum (λab) [4]
1 | [Zn+2].c1ccc2c(c1)-c1nc-2nc2[n-]c(nc3nc([n-]c4nc(n1)-c1ccccc1-4)-c1ccccc1-3)c1ccccc21 [Zinc phthalocyanine] | high | photosensitization could not be performed | in a visible light region |  | 
2 | CC1(C)C(/C=C/C=C/C=C/C=C2\N(CCCCS(=O)(=O)O)c3ccc4ccccc4c3C2(C)C)=[N+](CCCCS(=O)(=O)[O-])c2ccc3ccccc3c21 [Indocyanine green] |  | could not release a sufficient amount of singlet oxygen | in a near infrared region | 0.12 | 
3 | NCC(=O)CCC(=O)O [5-ALA, 5-aminolevulinic acid] |  |  |  |  | 405 nm
